In the supplement of paper PMC10307832:

Columns and labels:
Assay in all cases: relative viability (nuclei count vs DMSO), 5 days (fraction); higher = more cells survive
[1] = compound: C[C@@]1(C(=O)Nc2ccc(F)nc2)CCCN1c1nc(Nc2cc(C3CC3)n[nH]2)c2cccn2n1 + COc1cccc2cc(-c3nc([C@H]4CC[C@H](C(=O)O)CC4)n4ncnc(N)c34)[nH]c12 [OSI-027] (partner 0.5 µM)
How it was run: (§1)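 Cells from lung cancer lines were seeded into 1536-well plates and, one day later, dosed by pin tool. Treatments were either a single drug or a fixed dose of an anchor drug with five library-drug doses (not always all listed) in √10 steps. After 5 days, nuclei were stained in a one-step fixation (final 0.05% Triton X-100, 1% formaldehyde, 1 ug/ml Hoechst) and counted on 4× images, and relative viability is the treated-to-vehicle nuclei ratio, as the median of duplicate plates.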

[2] = compound: C[C@@]1(C(=O)Nc2ccc(F)nc2)CCCN1c1nc(Nc2cc(C3CC3)n[nH]2)c2cccn2n1 + C[C@]1(O)C[C@@H](c2nc(-c3ccc4ccc(-c5ccccc5)nc4c3)c3c(N)nccn32)C1 [Linsitinib] (partner 1 µM)
How it was run: as §1

[3] = compound: C[C@@]1(C(=O)Nc2ccc(F)nc2)CCCN1c1nc(Nc2cc(C3CC3)n[nH]2)c2cccn2n1 + Cc1nc(NC(=O)N2CCC[C@H]2C(N)=O)sc1-c1ccnc(C(C)(C)C(F)(F)F)c1 [Alpelisib] (partner 2 µM)
How it was run: as §1

[4] = compound: C[C@@]1(C(=O)Nc2ccc(F)nc2)CCCN1c1nc(Nc2cc(C3CC3)n[nH]2)c2cccn2n1 + O=C(CCCCCCC(=O)Nc1ccccc1)NO [Vorinostat] (partner 1 µM)
How it was run: as §1

Row | Cell Line | relative viability ([1]; first compound 0.04 µM) | relative viability ([1]; first compound 0.1265 µM) | relative viability ([1]; first compound 0.4 µM) | relative viability ([1]; first compound 1.265 µM) | relative viability ([2]; first compound 0.04 µM) | relative viability ([2]; first compound 0.1265 µM) | relative viability ([2]; first compound 0.4 µM) | relative viability ([2]; first compound 1.265 µM) | relative viability ([3]; first compound 0.04 µM) | relative viability ([3]; first compound 0.1265 µM) | relative viability ([3]; first compound 0.4 µM) | relative viability ([3]; first compound 1.265 µM) | relative viability ([4]; first compound 0.04 µM) | relative viability ([4]; first compound 0.1265 µM) | relative viability ([4]; first compound 0.4 µM) | relative viability ([4]; first compound 1.265 µM)
1 | NCI-H358 | 0.415 | 0.179 | 0.15 | 0.138 | 0.654 | 0.663 | 0.494 | 0.474 | 0.505 | 0.427 | 0.344 | 0.406 | 0.451 | 0.35 | 0.203 | 0.156
2 | EPLC-272H | 0.301 |  | 0.24 | 0.189 | 1.39 | 1.07 | 1.12 | 1.58 | 1.03 | 0.876 | 0.719 | 1.1 | 0.578 | 0.234 | 0.336 | 0.406
3 | NCI-H1395 | 0.727 | 0.561 | 0.668 | 0.665 | 1.3 | 0.737 | 1.01 | 0.947 | 0.988 | 0.719 | 1.15 | 1.1 | 0.803 | 0.415 | 0.629 | 0.528
4 | NCI-H2126 | 0.469 | 0.311 | 0.256 | 0.344 | 0.736 | 0.685 | 0.712 | 0.771 | 0.637 | 0.561 | 0.531 | 0.657 | 0.595 | 0.352 | 0.315 | 0.425
5 | LXF-289 | 0.633 | 0.463 | 0.407 | 0.353 | 1.02 | 0.947 | 0.936 | 1.02 | 1.09 | 0.991 | 0.975 | 1.1 | 0.815 | 0.701 | 0.73 | 0.792
6 | NCI-H2009 | 0.634 | 0.371 | 0.403 | 0.42 | 1.2 | 1.2 | 1.13 | 1.19 | 1.17 | 1.24 | 1.12 | 1.22 | 0.789 | 0.768 | 0.747 | 0.598
7 | NCI-H2405 | 0.401 | 0.294 | 0.269 | 0.272 | 1.04 | 0.91 | 0.779 | 0.766 | 0.785 | 0.688 | 0.552 | 0.573 | 0.959 | 0.889 | 0.634 | 0.44
8 | NCI-H1755 | 0.695 | 0.355 | 0.589 | 0.484 | 1.01 | 0.954 | 0.895 | 1.04 | 0.91 | 0.746 | 0.806 | 0.999 | 0.796 | 0.609 | 0.653 | 0.726
9 | HCC-78 | 0.377 | 0.308 | 0.298 | 0.323 | 0.541 | 0.332 | 0.313 | 0.259 | 0.321 | 0.196 | 0.23 | 0.257 | 0.33 | 0.491 | 0.245 | 0.327
10 | LOU-NH91 | 0.65 | 0.665 | 0.59 | 0.563 | 0.937 | 1.12 | 0.82 | 0.977 | 0.68 | 0.664 | 0.614 | 0.675 | 0.961 | 0.856 | 0.747 | 0.711
11 | NCI-H3122 | 0.499 | 0.86 | 0.275 | 0.412 | 1.04 | 1.1 | 1.01 | 1.06 | 0.637 | 0.514 | 0.631 | 0.564 | 0.91 | 0.972 | 0.916 | 0.879
